In US20160166578A1, “METHOD FOR TREATING TYPE I AND TYPE II DIABETES” (PRISM Phama Ltd., priority 2012, published 2016):

What was measured:
[1] = system: Wnt signaling pathway; experiment: Reporter gene assay (SuperTOPFlash luciferase, STF reporter cell line); assay type: cell-based; conditions: Homo sapiens; at a concentration of 1 μM; Hek-293 STF reporter cells, LiCl stimulation, 24 hours; read-out: inhibitory activity
Experimental: Screening for inhibitory action of the Wnt signaling pathway was carried out according to the following procedure using an STF reporter cell line (human embryonic kidney cell line Hek-293 stably transfected with the firefly luciferase gene under the control of eight tandem repeats of the SuperTOPFlash reporter element; Cell 116:883-895, 2004).
Growth Medium: Dulbecco's Modified Eagle Medium (DMEM), 10% FBS, Pen-Strep, supplemented with 400 µg/ml G418 antibiotic to maintain selection of SuperTOPFlash driven luciferase gene.
On the day prior to assay, cells were split into a white opaque 96-well plate at 20,000 cells per well in 200 microliters of complete growth medium. The plate was incubated overnight at 37° C., 5% CO2 to allow the cells to attach to the surface.
The next day, the inhibitors were prepared to be tested in complete growth medium, without G418, at 2× the desired final concentration (all conditions are done in duplicate). The existing medium was carefully pipetted from each well using a multiple pipettor. 50 microliters of fresh growth medium (without G148) containing the inhibitor (Compound A) was added to each well. […]
After 24 hours, 100 microliters of BrightGlo reagent (Promega, Madison, Wis.) was added to each well. […] The plate was read using a Packard TopCount (PerkinElmer, Inc.).

[2] = Primate study in aged hyperglycemic monkeys (c-peptide, insulin, HbA1c); assay type: in vivo, Macaca fascicularis; conditions: 8 mg/Kg/Day continuous infusion i.p., 84 days
Experimental: Animals: aged Macaca fascicularis (21 to 27 years old) monkeys that have hyperglycemia, N=3.
Administration: Compound A (8 mg/Kg/Day) administrated by continuous infusion by i.p. from day 152 to 236 (84 days). Biochemical tests: c-peptide, insulin, and HbA1c levels were measured every week.
C-peptide, a byproduct of insulin production that is elevated in hyperglycemia, was measured using ELECSYS c-peptide assay (Roche Diagnostics, Hoffmann-La Roche Ltd.) with electrochemiluminescence assay (ECLIA) readout.
Insulin levels were measured using the E test II IRI, EIA method (TOSOH Corp., Tokyo). Insulin levels are elevated in hyperglycemia.
HbA1c or glycated hemoglobin (hemoglobin A1c) was measured to identify the average glycated hemoglobin, as a measure of plasma glucose concentration, over the previous months prior to the measurement. HbA1c levels are elevated in hyperglycemia. HbA1c was measured using the Nordia N HbA1c assay kit, enzyme method (Sekisui Medical Co., Ltd., Japan).

[3] = Blood glucose levels in human clinical trial (patients with cancer and type II diabetes); assay type: in vivo; conditions: for blood glucose levels: 7 days continuous IV infusion, one week on and one week off
Experimental: Patients with cancer and type II diabetes were enrolled in a clinical trial (Safety and Efficacy Study in Subjects With Advanced Solid). The efficacy of Compound A for the treatment of diabetes was investigated by measurement of the blood glucose level of the patients. Conditions of patients enrolled in this study are as follows:
(Patient 101), with sigmoid colon cancer and diabetes. Compound A was administered at 40 mg/m^2/day, and Metformin Hydrochloride
(Patient 1103), with colon cancer and diabetes. Compound A was administered at 905 mg/m^2/day, in addition patient was treated with pioglitazone hydrochloride (Actos) and Metformin Hydrochloride.
Compound A administration was 7 days continuous IV infusion. The cycle of administration is one week on and one week off.
In addition to already prescribed drugs (pioglitazone hydrochloride or Metformin Hydrochloride) as basic treatment, Compound A with a defined dose for each patient was intravenously administrated for 7 continuous days followed by a 7-day rest period. This 14 days period with 7-day infusion period and 7-day rest period is defined as one cycle. Basic treatment for diabetes was continuously performed during this period. During the administration period (first, fifth and eighth day of each cycle) or after the administration, blood glucose levels were measured.

## C[C@H]1[C@H]2N(C(=O)CN(C)N2C(=O)NCc2ccccc2)[C@@H](Cc2ccc(OP(=O)(O)O)cc2)C(=O)N1Cc1cccc2cccnc12 [Compound A, 4-(((6S,9S,9aS)-1-(benzylcarbamoyl)-2,9-dimethyl-4,7-dioxo-8-(quinolin-8-ylmethyl)octahydro-1H-pyrazino[2,1-c][1,2,4]triazin-6-yl)methyl)phenyl dihydrogen phosphate]
[1]
  inhibition at 1 µM: > 50%
[2]; FIG. 3
  c-peptide levels: c-peptide levels fall over time
[2]; FIG. 4
  insulin levels: insulin levels fall over time
[2]; FIG. 5
  HbA1c levels (ratio of mmol HbA1c to mol hemoglobin): HbA1c levels fall over time
[3]; Patient 101, 40 mg/m^2/day, with Metformin Hydrochloride, by the end of every cycle (FIG. 1)
  blood glucose levels: blood glucose levels are reduced
[3]; Patient 1103, 905 mg/m^2/day, with pioglitazone hydrochloride and Metformin Hydrochloride, by the end of every cycle (FIG. 2)
  blood glucose levels: blood glucose levels are reduced
[3]; concomitant use with known drugs for type II diabetes
  blood glucose level of patients with type II diabetes not adequately controlled by known drugs: significantly decreased
[3]; patients with type II diabetes, concomitant with known drugs for diabetes
  adverse effects of concomitant use: No adverse effects
